Experimental data as given in patent US20220008359A1, “COMBINATION ANTI-CANCER PRODUCTS AND METHODS” (priority 2020, published 2022).
Marks after values point to notes of the source that are not given here.

Tested on: MCF7 cells
Experiment: Immuno-staining of protein expression and protein phosphorylation, MCF7 cells
Format: cell-based
Set-up: ATM level / P-AMPKa level / P-317 (ULK1) level / ATG5 level / HDAC8 level / BIM level: scale not given here
Experimental: ZR75-1 and MCF7 cells were treated with vehicle control, GZ17-6.02, Palbociclib or the drugs combined for 3 hours and for 6 hours. Cells were fixed in place and immuno-staining performed with in house validated antibodies to detect protein expression and protein phosphorylation.

For `CC(=O)c1c(C)c2cnc(Nc3ccc(N4CCNCC4)cn3)nc2n(C2CCCC2)c1=O` [PALBO, Palbociclib], the AKT level (MCF7, 3 h) was 100, the AMPKa level (MCF7, 3 h) was 102 and the ATG5 level (MCF7, 3 h) was 107. For the same molecule, the ATG13 level (MCF7, 3 h) was 100, the ATM level (MCF7, 3 h) was 100 and the BAK level (MCF7, 3 h) was 95. For the same molecule, the BAX level (MCF7, 3 h) was 103, the BCL-XL level (MCF7, 3 h) was 99 and the BIM level (MCF7, 3 h) was 109. For the same molecule, the Beclin1 level (MCF7, 3 h) was 113#, the CD95 level (MCF7, 3 h) was 101 and the CHOP level (MCF7, 3 h) was 112. For the same molecule, the “Cyclin D level” value (MCF7, 3 h) was 104, the “Cyclin E level” value (MCF7, 3 h) was 104 and the ER level (MCF7, 3 h) was 99. For the same molecule, the ERBB1 level (MCF7, 3 h) was 99, the ERBB2 level (MCF7, 3 h) was 100 and the ERBB3 level (MCF7, 3 h) was 101. It also gave an ERK1/2 level (MCF7, 3 h) of 100, an ERK2 level (MCF7, 3 h) of 100 and an ERRB4 level (MCF7, 3 h) of 99. For the same molecule, the FAS-L level (MCF7, 3 h) was 108, the GRP78 level (MCF7, 3 h) was 114# and the HDAC1 level (MCF7, 3 h) was 100. It also gave an HDAC2 level (MCF7, 3 h) of 94, an HDAC3 level (MCF7, 3 h) of 97 and an HDAC4 level (MCF7, 3 h) of 99. It also gave an HDAC5 level (MCF7, 3 h) of 99, an HDAC6 level (MCF7, 3 h) of 100 and an HDAC7 level (MCF7, 3 h) of 100. For the same molecule, the HDAC8 level (MCF7, 3 h) was 100, the HDAC9 level (MCF7, 3 h) was 99 and the HDAC10 level (MCF7, 3 h) was 99. For the same molecule, the HDAC11 level (MCF7, 3 h) was 100, the IDO1 level (MCF7, 3 h) was 97 and the JAK2 level (MCF7, 3 h) was 99. The JNK1/2 level (MCF7, 3 h) was 100, the LATS1/2 level (MCF7, 3 h) was 100 and the MCL1 level (MCF7, 3 h) was 95. The MHCA level (MCF7, 3 h) was 102, the NEDD4 level (MCF7, 3 h) was 96 and the NFkB level (MCF7, 3 h) was 101. For the same molecule, the ODC level (MCF7, 3 h) was 103, the “P-89 (TAZ) level” value (MCF7, 3 h) was 105 and the “P-109 (YAP) level” value (MCF7, 3 h) was 106. The “P-127 (YAP) level” value (MCF7, 3 h) was 102, the “P-317 (ULK1) level” value (MCF7, 3 h) was 109 and the “P-397 (YAP) level” value (MCF7, 3 h) was 96. The “P-757 (ULK1) level” value (MCF7, 3 h) was 98, the “P-909 (LATS1/2) level” value (MCF7, 3 h) was 99 and the “P-1079 (LATS1/2) level” value (MCF7, 3 h) was 109. For the same molecule, the P-AMPKa level (MCF7, 3 h) was 112, the P-ATG13 level (MCF7, 3 h) was 116# and the P-ATM level (MCF7, 3 h) was 105. For the same molecule, the P-ERBB1 level (MCF7, 3 h) was 100, the P-ERBB2 level (MCF7, 3 h) was 99 and the P-ERBB3 level (MCF7, 3 h) was 111. The P-ERBB4 level (MCF7, 3 h) was 102, the P-ERK level (MCF7, 3 h) was 101 and the P-JAK2 level (MCF7, 3 h) was 101. The P-JNK level (MCF7, 3 h) was 89, the P-KIT level (MCF7, 3 h) was 100 and the P-MET level (MCF7, 3 h) was 100. The P-NFkB level (MCF7, 3 h) was 100, the P-PDGFRb level (MCF7, 3 h) was 103 and the P-PERK level (MCF7, 3 h) was 109. The “P-S2448 (mTOR) level” value (MCF7, 3 h) was 98, the “P-S2481 (mTOR) level” value (MCF7, 3 h) was 98 and the “P-T308 (AKT) level” value (MCF7, 3 h) was 96. For the same molecule, the “P-Y694 (STAT5) level” value (MCF7, 3 h) was 98, the “P-Y705 (STAT3) level” value (MCF7, 3 h) was 98 and the P-eIF2a level (MCF7, 3 h) was 107. For the same molecule, the P-p38 level (MCF7, 3 h) was 97, the “P-p70 T389 level” value (MCF7, 3 h) was 105 and the PD-L1 level (MCF7, 3 h) was 100. For the same molecule, the PD-L2 level (MCF7, 3 h) was 100, the PDGFRb level (MCF7, 3 h) was 100 and the PERK level (MCF7, 3 h) was 101. It also gave a PP1 level (MCF7, 3 h) of 98, a PTEN level (MCF7, 3 h) of 103 and an STAT3 level (MCF7, 3 h) of 100. For the same molecule, the STAT5 level (MCF7, 3 h) was 100, the TAZ level (MCF7, 3 h) was 101 and the ULK1 level (MCF7, 3 h) was 100. The “Y416 (c-SRC) level” value (MCF7, 3 h) was 100, the “Y527 (c-SRC) level” value (MCF7, 3 h) was 98 and the YAP level (MCF7, 3 h) was 99. For the same molecule, the c-KIT level (MCF7, 3 h) was 100, the c-MET level (MCF7, 3 h) was 91 and the c-SRC level (MCF7, 3 h) was 100. For the same molecule, the eIF2a level (MCF7, 3 h) was 99, the mTOR level (MCF7, 3 h) was 100 and the p38 level (MCF7, 3 h) was 101. The “p70 S6K level” value (MCF7, 3 h) was 99, the AKT level (MCF7, 6 h) was 100 and the AMPKa level (MCF7, 6 h) was 100. For the same molecule, the ATG5 level (MCF7, 6 h) was 114#, the ATG13 level (MCF7, 6 h) was 101 and the ATM level (MCF7, 6 h) was 99. For the same molecule, the BAK level (MCF7, 6 h) was 109, the BAX level (MCF7, 6 h) was 95 and the BCL-XL level (MCF7, 6 h) was 94. The BIM level (MCF7, 6 h) was 113#, the Beclin1 level (MCF7, 6 h) was 117# and the CD95 level (MCF7, 6 h) was 100. For the same molecule, the CHOP level (MCF7, 6 h) was 116#, the “Cyclin D level” value (MCF7, 6 h) was 108 and the “Cyclin E level” value (MCF7, 6 h) was 104. For the same molecule, the ER level (MCF7, 6 h) was 91, the ERBB1 level (MCF7, 6 h) was 101 and the ERBB2 level (MCF7, 6 h) was 100. It also gave an ERBB3 level (MCF7, 6 h) of 100, an ERK1/2 level (MCF7, 6 h) of 100 and an ERK2 level (MCF7, 6 h) of 100. The ERRB4 level (MCF7, 6 h) was 100, the FAS-L level (MCF7, 6 h) was 111 and the GRP78 level (MCF7, 6 h) was 115#. It also gave an HDAC1 level (MCF7, 6 h) of 99, an HDAC2 level (MCF7, 6 h) of 95 and an HDAC3 level (MCF7, 6 h) of 101. It also gave an HDAC4 level (MCF7, 6 h) of 102, an HDAC5 level (MCF7, 6 h) of 98 and an HDAC6 level (MCF7, 6 h) of 101. The HDAC7 level (MCF7, 6 h) was 101, the HDAC8 level (MCF7, 6 h) was 101 and the HDAC9 level (MCF7, 6 h) was 100. It also gave an HDAC10 level (MCF7, 6 h) of 99, an HDAC11 level (MCF7, 6 h) of 99 and an IDO1 level (MCF7, 6 h) of 96. For the same molecule, the JAK2 level (MCF7, 6 h) was 100, the JNK1/2 level (MCF7, 6 h) was 100 and the LATS1/2 level (MCF7, 6 h) was 100. The MCL1 level (MCF7, 6 h) was 91, the MHCA level (MCF7, 6 h) was 103 and the NEDD4 level (MCF7, 6 h) was 97. For the same molecule, the NFkB level (MCF7, 6 h) was 100, the ODC level (MCF7, 6 h) was 101 and the “P-89 (TAZ) level” value (MCF7, 6 h) was 103. For the same molecule, the “P-109 (YAP) level” value (MCF7, 6 h) was 104, the “P-127 (YAP) level” value (MCF7, 6 h) was 104 and the “P-317 (ULK1) level” value (MCF7, 6 h) was 113#. For the same molecule, the “P-397 (YAP) level” value (MCF7, 6 h) was 99, the “P-757 (ULK1) level” value (MCF7, 6 h) was 98 and the “P-909 (LATS1/2) level” value (MCF7, 6 h) was 99. The “P-1079 (LATS1/2) level” value (MCF7, 6 h) was 112, the P-AMPKa level (MCF7, 6 h) was 117# and the P-ATG13 level (MCF7, 6 h) was 118#. The P-ATM level (MCF7, 6 h) was 109, the P-ERBB1 level (MCF7, 6 h) was 100 and the P-ERBB2 level (MCF7, 6 h) was 100. The P-ERBB3 level (MCF7, 6 h) was 114#, the P-ERBB4 level (MCF7, 6 h) was 106 and the P-ERK level (MCF7, 6 h) was 99. The P-JAK2 level (MCF7, 6 h) was 100, the P-JNK level (MCF7, 6 h) was 90 and the P-KIT level (MCF7, 6 h) was 100. It also gave a P-MET level (MCF7, 6 h) of 96, a P-NFkB level (MCF7, 6 h) of 99 and a P-PDGFRb level (MCF7, 6 h) of 105. For the same molecule, the P-PERK level (MCF7, 6 h) was 103, the “P-S2448 (mTOR) level” value (MCF7, 6 h) was 98 and the “P-S2481 (mTOR) level” value (MCF7, 6 h) was 96. For the same molecule, the “P-T308 (AKT) level” value (MCF7, 6 h) was 107, the “P-Y694 (STAT5) level” value (MCF7, 6 h) was 98 and the “P-Y705 (STAT3) level” value (MCF7, 6 h) was 98. The P-eIF2a level (MCF7, 6 h) was 110, the P-p38 level (MCF7, 6 h) was 100 and the “P-p70 T389 level” value (MCF7, 6 h) was 110. It also gave a PD-L1 level (MCF7, 6 h) of 98, a PD-L2 level (MCF7, 6 h) of 98 and a PDGFRb level (MCF7, 6 h) of 99. For the same molecule, the PERK level (MCF7, 6 h) was 101, the PP1 level (MCF7, 6 h) was 99 and the PTEN level (MCF7, 6 h) was 103. For the same molecule, the STAT3 level (MCF7, 6 h) was 100, the STAT5 level (MCF7, 6 h) was 100 and the TAZ level (MCF7, 6 h) was 100. The ULK1 level (MCF7, 6 h) was 100, the “Y416 (c-SRC) level” value (MCF7, 6 h) was 101 and the “Y527 (c-SRC) level” value (MCF7, 6 h) was 103. It also gave a YAP level (MCF7, 6 h) of 99, a c-KIT level (MCF7, 6 h) of 102 and a c-MET level (MCF7, 6 h) of 99. The c-SRC level (MCF7, 6 h) was 101, the eIF2a level (MCF7, 6 h) was 100 and the mTOR level (MCF7, 6 h) was 100. The p38 level (MCF7, 6 h) was 103, the “p70 S6K level” value (MCF7, 6 h) was 100 and the P-ERBB3 level (MCF7, 6 h, listed as Palbo) was 114.
